Assay [1] relates to CMK cells. Kind of assay: CellTiter 96 AQueous One cell proliferation assay with JAK I. Particulars: seventy hours, increasing doses up to 2 micrograms/ml. The class given is cell-based, human. Here is the method:
(§1) JAK I (Calbiochem, San Diego, Calif.) is a potent inhibitor of the JAK family of kinases, including JAK3. To confirm that JAK3 is driving the proliferation of CMK cells, the effect of JAK I on the growth and/or viability of CMK cells was examined. CMK and K562 cells (as a control) were treated for seventy hours with increasing doses of JAK I inhibitor up to 2 micrograms/ml. The number of viable cells was determined with the CellTiter 96 AQueous One solution cell proliferation assay (Promega). Apoptosis was measured with a fluorescent stain measuring annexin V.

The test system of assay [2] is K562 cells. Kind of assay: CellTiter 96 AQueous One cell proliferation assay with JAK I, control cell line. Particulars: control cell line K562, seventy hours, up to 2 micrograms/ml. Format: cell-based. Here is the method:
as §1

Assay [3] has as its system CMK cells. Nature of the assay: Apoptosis by annexin V staining with JAK I. Format: cell-based, human. The conditions noted are these: increasing concentrations. As to the method: as §1
Assay [4] concerns STAT5. Nature of the assay: Western blot of STAT5 phosphorylation after JAK I. Format: cell-based, human. The conditions noted are these: CMK cells, range of inhibitor concentrations. As to the method: AML-193, GDM-1, CMK, K562 and Ba/F3 cells were obtained from the German National Resource Centre for Biological Material (DSMZ). GF-D8 cells were generously provided by Dr. Orietta Spinelli, Laboratorio Paolo Belli, Bergamo, Italy. All cell lines were maintained in RPMI 1640 supplemented with 10% FCS, 1 unit/mL penicillin G, and 1 μg/mL streptomycin at 37° C. and 5% CO2. Western blotting was carried out according to standard methods, following the Western Blotting Protocol (Cell Signaling Technology, Inc., 2005-2006 Catalogue).
To further confirm the effect of the JAK I on the CMK cell line, Western blot analysis (as described above) was performed following exposure to a range of inhibitor concentrations, and the activity of the JAK3 downstream target, STAT5 examined (see FIG. 3C).

Assay [5] deals with control cells that do not express the mutant JAK3 protein. The conditions noted are these: control cells not expressing mutant JAK3. From the text: (§2) CP-690,550, which specifically binds to and blocks the ATP-binding site of JAK3 kinase, thereby preventing phosphorylation and activation of this enzyme, is commercially available and some of its properties have been described. See, e.g. Borne et al., Tranplantation 80 (12): 1756-1764 (2005); Paniagua et al., Tranplantation 80 (9): 1283-1292 (2005).

Assay [6] relates to human AML cell line (CMK). Particulars: CMK cells expressing mutant (A572V) JAK3.
From the text: as §2

Turning to `CC(C)(C)c1nc2c3cc[nH]c(=O)c3c3cc(F)ccc3c2[nH]1` [JAK I], in assay [1], the cell proliferation entry is “inhibition of cell proliferation” and the viability result is reported as “significant decrease in viability”. Further, the growth and viability result in assay [2] was “no significant effect”. Also, the “apoptosis as measured by annexin V staining” value in assay [3] is listed as “increase in apoptosis”. For the same compound, in assay [4], the “phosphorylation of STAT5” value is listed as “inhibited phosphorylation”.

As for `C[C@@H]1CCN(C(=O)CC#N)C[C@@H]1N(C)c1ncnc2[nH]ccc12` [CP-690,550], the growth and survival entry is “not in control cells” in assay [5]; “selectively inhibited the growth and survival” in assay [6].

The values are drawn from US20090285796A1, “MUTANT JAK3 KINASE IN HUMAN LEUKEMIA” (CELL SIGNALING TECHNOLOGY, INC., priority 2006, published 2009).
